In patent US8664379B2, “Fused heterocyclic compounds as ion channel modulators” (Gilead Sciences, Inc., priority 2008, dated 2014):
“And” between values parts separate entries of the source, which are not always exact repeats. Equal entries are not always repeated.

How the values were obtained:
[1] = biological target: wild-type human cardiac sodium channel, hNav1.5 (late sodium current) (Homo sapiens, UniProt Q14524); test: Late INa screening assay (PatchXpress whole cell patch clamp); format: cell-based; conditions: HEK293, 10 μM test compound; HEK293 cells expressing hNav1.5; late INa generated with 10 μM Tefluthrin (some experiments 50 nM ATX II); read-out: Late INa % blk (10 μM test cmpd)
Method: The late sodium current (Late INa) and peak sodium current (Peak INa) assays were performed on an automated electrophysiology platform, PatchXpress 7000A (MDS Analytical Technologies, Sunnyvale, Calif.), which uses the whole cell patch clamp technique to measure currents through the cell membrane of up to 16 cells at a time. The assay used an HEK293 (human embryonic kidney) cell line heterologously expressing the wild-type human cardiac sodium channel, hNav1.5, purchased from Millipore (Billerica, Mass.). No beta subunits were coexpressed with the Na channel alpha subunit. Cells were maintained with standard tissue culture procedures and stable channel expression was maintained with 400 μg/ml Geneticin in the culture medium. Cells isolated for use on PatchXpress were incubated for 5 minutes in Versene 1× and then for 2 minutes in 0.0125% Trypsin-EDTA (both at 37° C.) to ensure that 80-90% of the cells are single and not part of a cell cluster. Experiments were carried out at 24-27° C.
For both the Late INa and Peak INa assays, series resistance compensation was set to 50% and whole-cell compensation was performed automatically. Currents were low-pass filtered at 10 kHz and digitized at 31.25 kHz. Currents through open sodium channels were automatically recorded and stored in the DataXpress2 database (MDS Analytical Technologies, Sunnyvale, Calif.). Analysis was performed using DataXpress2 analysis software and data are compiled in Excel.
Compound stocks were routinely made in glass vials to 10 mM in dimethyl sulfoxide (DMSO). In some cases, when compounds were not soluble in DMSO, they were made in 100% ethanol. Stocks were sonicated as necessary. The extracellular solution for screening Late INa was composed of: 140 mM NaCl, 4 mM KCl, 1.8 mM CaCl2, 0.75 mM MgCl2, and 5 mM HEPES with pH adjusted to 7.4 using NaOH. The extracellular solution for screening Peak INa was composed of: 20 mM NaCl, 120 mM N-methyl-D glucamine, 4 mM KCl, 1.8 mM CaCl2, 0.75 mM MgCl2, and 5 mM HEPES with pH adjusted to 7.4 using HCl. The intracellular solution used to perfuse the inside of the cells for both the Late INa and Peak INa assays contains: 120 mM CsF, 20 mM CsCl, 5 mM EGTA, 5 mM HEPES and pH adjusted to 7.4 with CsOH. Compounds were diluted in extracellular solution to 10 μM in glass vials and then transferred to glass well plates before robotic addition to the cells. The 0Na extracellular solution used at the end of each experiment for the Late INa and Peak INa assays to measure baseline current contained: 140 mM N-methyl-D-glucamine; 4 mM KCl; 1.8 mM CaCl2; 0.75 mM MgCl2; 5 mM HEPES and pH was adjusted to 7.4 with HCl.
For the Late INa assay, sodium channels were activated every 10 seconds (0.1 Hz) by depolarizing the cell membrane to −20 mV for 250 milliseconds (ms) from a holding potential of −120 mV. In response to a −20 mV voltage step, typical Nav1.5 sodium currents activated rapidly to a peak negative current and then inactivated nearly completely within 3-4 ms.
All compounds were tested to determine their activity in blocking the late sodium current. Late INa current is generated by adding 10 μM Tefluthrin (pyrethroid) to the extracellular solution while recording Na currents. For some experiments, 50 nM ATX II (sea anemone toxin), another late INa activator, was used to generate the late component. Both activators generate late components that are large enough that block of the late component by compounds can be measured easily. For the purposes of the screening, late INa is defined as the mean current between 225 ms and 250 ms after stepping to −20 mV to activate Na channels. After establishing the whole cell recording configuration, late INa activators were added to each well 4 times over a 16-17 minute period so that the late component of the Na current reached a stable value. Compounds were then added (typically at 10 μM), in the presence of late INa activator, with 3 additions over the course of 7 or 8 minutes. […]

[2] = biological target: T1, hERG potassium channel (Homo sapiens, UniProt Q12809); test: hERG screening assay (PatchXpress patch clamp); format: cell-based; conditions: hERG expressed in CHO cells, peak current at -50 mV; for hERG Patch Clamp hERG % blk 1 μm: 1 μM test compound; for hERG Patch Clamp hERG % blk 10 μm: 10 μM test compound
T1 construct: expressed in transfected cells
Method: Compounds were screened to test their activity in blocking the hERG potassium channel. The hERG channel was heterologously expressed in a CHO (Chinese Hamster Ovary) cell line. Cells were maintained with standard tissue culture procedures and stable channel expression was maintained with 500 μg/ml G418 in the culture medium. Cells were harvested for testing on the PatchXpress automated patch clamp with Accumax (Innovative Cell Technologies, San Diego, Calif.) to isolate single cells.
The following solutions were used for electrophysiological recordings. The external solution contained: 2 mM CaCl2; 2 mM MgCl2; 4 mM KCl; 150 mM NaCl; 10 mM Glucose; 10 mM HEPES (pH 7.4 with 1M NaOH, osmolarity). The internal solution contained: 140 mM KCl, 10 mM MgCl2, 6 mM EGTA, 5 mM HEPES, 5 mM ATP (pH adjusted to 7.25 with KOH).
hERG channels are activated when the voltage is stepped to +20 mV from the −80 mV holding potential. During a 5 second step at +20 mV, the channels activated and then largely inactivated, so the currents were relatively small. Upon returning to −50 mV from +20 mV, hERG currents transiently became much larger as inactivation was rapidly removed and then the channel closed. The first step to −50 mV for 300 ms was used as a baseline for measuring the peak amplitude during the step to −50 mV after channel activation. The peak current at −50 mV was measured both under control conditions and after addition of compound.
All compounds were prepared as 10 mM DMSO stocks in glass vials. Stock solutions were mixed by vigorous vortexing and sonication for about 2 minutes at room temperature. For testing, compounds were diluted in glass vials using an intermediate dilution step in pure DMSO and then further diluted to working concentrations in external solution. Dilutions were prepared no longer than 20 minutes before use.
After achieving the whole-cell configuration, cells were monitored for 90 seconds to assess stability and washed with external solution for 66 seconds. The voltage protocol described above was then applied to the cells every 12 seconds and throughout the whole procedure. Only cells with stable recording parameters and meeting specified health criteria were allowed to enter the compound addition procedure.
External solution containing 0.1% DMSO (vehicle) was applied to the cells first to establish the control peak current amplitude. After allowing the current to stabilize for 3 to 5 minutes, 1 μM and then 10 μM test compounds were applied. Each compound concentration was added 4 times and cells were kept in test solution until the effect of the compound reached steady state or for a maximum of 12 minutes. After addition of test compound, a positive control (1 μM Cisapride) was added—it must block >95% of the current for the experiment to be considered valid. Washout in the external solution compartment was performed until the recovery of the current reached steady state. Data were analyzed using DataXpress, Clampfit (Molecular Devices, Inc., Sunnyvale) and Origin 7 (Originlab Corp.)

Sequence of wild-type human cardiac sodium channel, hNav1.5 (late sodium current) (Q14524 whole entry): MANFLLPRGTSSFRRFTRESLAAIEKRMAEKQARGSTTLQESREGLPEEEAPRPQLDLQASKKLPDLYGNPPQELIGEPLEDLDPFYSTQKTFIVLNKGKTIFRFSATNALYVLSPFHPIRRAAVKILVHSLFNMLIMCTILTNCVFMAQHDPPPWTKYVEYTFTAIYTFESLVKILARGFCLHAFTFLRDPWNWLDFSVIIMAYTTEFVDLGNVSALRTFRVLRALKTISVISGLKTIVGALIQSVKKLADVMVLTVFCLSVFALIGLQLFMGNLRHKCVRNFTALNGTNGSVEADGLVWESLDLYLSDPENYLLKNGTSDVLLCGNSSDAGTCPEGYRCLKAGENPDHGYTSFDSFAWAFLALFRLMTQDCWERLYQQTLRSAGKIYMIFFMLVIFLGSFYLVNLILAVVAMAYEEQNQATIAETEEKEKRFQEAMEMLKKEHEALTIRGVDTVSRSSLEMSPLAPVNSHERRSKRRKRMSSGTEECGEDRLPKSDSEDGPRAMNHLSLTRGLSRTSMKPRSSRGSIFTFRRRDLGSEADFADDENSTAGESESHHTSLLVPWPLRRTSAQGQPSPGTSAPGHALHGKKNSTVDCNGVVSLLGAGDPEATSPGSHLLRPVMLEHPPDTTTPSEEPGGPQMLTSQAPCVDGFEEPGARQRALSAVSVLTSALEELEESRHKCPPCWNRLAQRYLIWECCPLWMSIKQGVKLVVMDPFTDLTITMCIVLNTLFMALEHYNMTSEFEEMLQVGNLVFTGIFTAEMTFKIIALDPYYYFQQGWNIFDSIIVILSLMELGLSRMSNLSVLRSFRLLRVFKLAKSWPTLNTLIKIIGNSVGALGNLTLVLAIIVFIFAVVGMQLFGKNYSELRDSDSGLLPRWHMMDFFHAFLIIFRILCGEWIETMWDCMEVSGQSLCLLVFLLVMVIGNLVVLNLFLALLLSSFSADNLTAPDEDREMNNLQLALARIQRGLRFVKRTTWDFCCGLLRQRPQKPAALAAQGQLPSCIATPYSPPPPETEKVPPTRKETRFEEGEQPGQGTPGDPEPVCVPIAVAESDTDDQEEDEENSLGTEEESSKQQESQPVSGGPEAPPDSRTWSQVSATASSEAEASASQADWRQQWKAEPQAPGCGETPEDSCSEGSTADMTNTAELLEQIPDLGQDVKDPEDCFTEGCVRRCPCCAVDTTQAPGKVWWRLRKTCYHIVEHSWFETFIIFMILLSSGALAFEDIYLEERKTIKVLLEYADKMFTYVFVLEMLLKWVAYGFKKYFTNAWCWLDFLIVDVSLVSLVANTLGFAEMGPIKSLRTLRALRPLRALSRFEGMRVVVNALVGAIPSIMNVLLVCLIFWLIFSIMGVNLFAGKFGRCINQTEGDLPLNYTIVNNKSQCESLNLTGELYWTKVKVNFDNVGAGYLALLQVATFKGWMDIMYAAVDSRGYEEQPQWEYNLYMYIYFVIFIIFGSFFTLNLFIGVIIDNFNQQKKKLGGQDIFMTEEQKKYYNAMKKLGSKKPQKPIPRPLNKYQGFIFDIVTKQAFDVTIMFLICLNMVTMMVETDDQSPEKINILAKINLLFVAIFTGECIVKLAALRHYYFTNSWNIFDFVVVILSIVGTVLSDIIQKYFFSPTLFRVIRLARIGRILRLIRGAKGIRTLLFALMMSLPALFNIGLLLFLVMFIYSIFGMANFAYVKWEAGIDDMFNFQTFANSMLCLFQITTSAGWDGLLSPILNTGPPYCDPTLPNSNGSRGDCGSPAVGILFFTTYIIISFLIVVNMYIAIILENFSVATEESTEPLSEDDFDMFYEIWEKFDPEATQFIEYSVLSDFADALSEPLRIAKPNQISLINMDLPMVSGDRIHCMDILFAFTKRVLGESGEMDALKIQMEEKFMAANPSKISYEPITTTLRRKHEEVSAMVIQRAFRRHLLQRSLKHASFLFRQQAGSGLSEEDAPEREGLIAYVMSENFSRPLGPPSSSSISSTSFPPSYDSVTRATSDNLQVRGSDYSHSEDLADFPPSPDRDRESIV
T1 sequence (Q12809 whole entry): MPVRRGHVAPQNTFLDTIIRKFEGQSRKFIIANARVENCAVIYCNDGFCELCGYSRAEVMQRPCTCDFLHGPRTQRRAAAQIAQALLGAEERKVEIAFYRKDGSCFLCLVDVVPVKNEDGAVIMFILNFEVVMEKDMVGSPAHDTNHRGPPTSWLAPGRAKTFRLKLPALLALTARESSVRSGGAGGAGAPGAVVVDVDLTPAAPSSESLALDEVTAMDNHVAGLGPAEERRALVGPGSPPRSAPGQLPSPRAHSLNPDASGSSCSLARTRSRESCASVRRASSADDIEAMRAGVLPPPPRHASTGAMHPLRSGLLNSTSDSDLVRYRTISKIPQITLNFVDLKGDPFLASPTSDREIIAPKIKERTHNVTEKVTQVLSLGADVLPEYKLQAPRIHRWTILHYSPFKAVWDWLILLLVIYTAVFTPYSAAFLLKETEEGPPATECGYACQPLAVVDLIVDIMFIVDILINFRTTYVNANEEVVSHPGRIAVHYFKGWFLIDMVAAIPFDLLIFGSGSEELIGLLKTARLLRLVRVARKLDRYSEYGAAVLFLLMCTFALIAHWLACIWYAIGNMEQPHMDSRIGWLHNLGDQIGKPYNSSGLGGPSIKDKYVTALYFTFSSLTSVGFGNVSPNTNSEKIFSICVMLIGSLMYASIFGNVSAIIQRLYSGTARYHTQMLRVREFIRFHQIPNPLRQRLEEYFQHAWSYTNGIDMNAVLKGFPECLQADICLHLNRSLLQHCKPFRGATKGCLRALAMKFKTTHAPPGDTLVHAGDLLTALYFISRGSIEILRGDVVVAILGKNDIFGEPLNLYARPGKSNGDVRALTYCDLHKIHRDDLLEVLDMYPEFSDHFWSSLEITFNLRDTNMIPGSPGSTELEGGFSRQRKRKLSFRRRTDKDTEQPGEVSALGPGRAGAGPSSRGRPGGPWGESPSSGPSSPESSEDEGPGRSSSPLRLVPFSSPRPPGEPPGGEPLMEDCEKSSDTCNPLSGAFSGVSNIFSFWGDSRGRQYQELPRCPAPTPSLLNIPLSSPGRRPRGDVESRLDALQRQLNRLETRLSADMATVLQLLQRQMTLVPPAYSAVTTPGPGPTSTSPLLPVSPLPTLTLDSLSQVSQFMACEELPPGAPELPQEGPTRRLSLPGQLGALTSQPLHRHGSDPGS

| SMILES | inhibition at 10 µM [1] [%] | hERG Patch Clamp hERG % blk 1 μm [2] | hERG Patch Clamp hERG % blk 10 μm [2] |
| --- | --- | --- | --- |
| O=C1CCc2cc(-c3ccc(C(F)(F)F)cc3)ccc2N1CCO [Compound 14, 1-(2-hydroxyethyl)-6-[4-(trifluoromethyl)phenyl]-3,4-dihydroquinolin-2(1H)-one] | 29 | 10% | 28% |
| O=C1CCc2cc(-c3ccc(F)c(F)c3)ccc2N1CCO [Compound 15, 6-(3,4-difluorophenyl)-1-(2-hydroxyethyl)-3,4-dihydroquinolin-2(1H)-one] | 36 | 13% | 59% |
| CN1C(=O)CCc2cc(-c3cccc(F)c3)ccc21 [Compound 21, 6-(3-fluorophenyl)-1-methyl-3,4-dihydroquinolin-2(1H)-one] | 65 | 11% | 36% |
| CCOC(=O)CN1C(=O)CCc2cc(-c3ccc(OC(F)(F)F)cc3)ccc21 [Compound 25, ethyl {2-oxo-6-[4-(trifluoromethoxy)phenyl]-3,4-dihydroquinolin-1(2H)-yl}acetate] | 20 | 26% | 32% |
| O=C1CCc2cc(-c3ccc(F)cc3F)ccc2N1Cc1csc(-c2ccc(Cl)cc2)n1 [Compound 26, 1-{[2-(4-chlorophenyl)-1,3-thiazol-4-yl]methyl}-6-(2,4-difluorophenyl)-3,4-dihydroquinolin-2(1H)-one] | 20 | 10% | 10% |
| COCCN1C(=O)CCc2cc(-c3ccc(F)cc3F)ccc21 [Compound 27, 6-(2,4-difluorophenyl)-1-(2-methoxyethyl)-3,4-dihydroquinolin-2(1H)-one] | 52 | 12% | 47% |
| CC(C)(C)OC(=O)CN1C(=O)CCc2cc(-c3ccc(C(F)(F)F)cc3)ccc21 [Compound 29, tert-butyl {2-oxo-6-[4-(trifluoromethyl)phenyl]-3,4-dihydroquinolin-1(2H)-yl}acetate] | 69 | 11% | 97% |
| O=C1CCc2cc(-c3ccc(OC(F)(F)F)cc3)ccc2N1 [Compound 34, 6-[4-(trifluoromethoxy)phenyl]-3,4-dihydroquinolin-2(1H)-one] | 60 | 13% | 37% |
| Cc1cc(CN2C(=O)CCc3cc(-c4ccc(OC(F)(F)F)cc4)ccc32)no1 [Compound 39, 1-[(5-methylisoxazol-3-yl)methyl]-6-[4-(trifluoromethoxy)phenyl]-3,4-dihydroquinolin-2(1H)-one] | 60 | 12% | 96% |
| COCCN1C(=O)CCc2cc(-c3ccc(C(F)(F)F)cc3)ccc21 [Compound 49, 1-(2-methoxyethyl)-6-[4-(trifluoromethyl)phenyl]-3,4-dihydroquinolin-2(1H)-one] | 60 | 10% | 42% |
| O=C(O)CN1C(=O)CCc2cc(-c3ccc(Cl)c(F)c3)ccc21 [Compound 58, [6-(4-chloro-3-fluorophenyl)-2-oxo-3,4-dihydroquinolin-1(2H)-yl]acetic acid] | 13 | 10% | 10% |
| O=C(O)CN1C(=O)CCc2cc(-c3cccc(C(F)(F)F)c3)ccc21 [Compound 60, 2-(2-oxo-6-(3-(trifluoromethyl)phenyl)-3,4-dihydroquinolin-1(2H)-yl)acetic acid] | 25 | 10% | 10% |
| O=C(O)CN1C(=O)CCc2cc(-c3ccc(Cl)c(Cl)c3)ccc21 [Compound 69, [6-(3,4-dichlorophenyl)-2-oxo-3,4-dihydroquinolin-1(2H)-yl]acetic acid] | 16 | 10% | 10% |
| O=C(O)CN1C(=O)CCc2cc(-c3ccc(Oc4ccccc4)cc3)ccc21 [Compound 70, [2-oxo-6-(4-phenoxyphenyl)-3,4-dihydroquinolin-1(2H)-yl]acetic acid] | 17 | 10% | 10% |
| CC(O)CN1C(=O)CCc2cc(-c3ccc(OC(F)(F)F)cc3)ccc21 (stereo not drawn) [Compound 89, 1-(2-hydroxypropyl)-6-[4-(trifluoromethoxy)phenyl]-3,4-dihydroquinolin-2(1H)-one] | 42 | 24% and 16% | 67% and 72% |
